Experiments:
LRRK2 = target: T1, LRRK2 (Homo sapiens, UniProt Q5S007); test: Radiometric kinase assay, off-target LRRK2; format: biochemical; conditions: off-target from DiscoveRx kinome profiling
T1 construct: Reaction Biology (Malvern, Pa.), contract assay
Method: (§1) Aurora B and other radiometric kinase assays were performed by Reaction Biology (Malvern, Pa.). Kinome profiling of centrinone and centrinone-B was performed by DiscoveRx (San Diego, Calif.).

RPE1 cells = test: Passaging assay and flow cytometry, RPE1; format: cell-based, human
Method: (§2) Passaging assays. Cells were seeded into 10 cm tissue culture plates at 150,000 (HeLa, NIH/3T3 and RPE1) or 200,000 cells/plate (primary fibroblasts). Compounds were added at the indicated concentrations. At 4-day intervals, cells were harvested, counted using a TC10 cell counter, and re-seeded into new plates at the densities above. Results are from 2 independent experiments.
Flow cytometry. Cells were seeded into 15 cm tissue culture plates such that each plate was 50-80% confluent at the time of harvesting. Cells were de-adhered by trypsinization and pelleted in 15 ml tubes by centrifugation. Each pellet was resuspended in 0.3 mL PBS, and 0.7 mL ice-cold 100% ethanol was added to the tube while gently vortexing. Fixed cells were stored at 4° C. for up to 2 weeks. For DNA content analysis, fixed cells were pelleted, washed twice with PBS, and resuspended in 0.5 mL PBS+2% BSA and Alexa488-conjugated anti-p-H3(Ser10) antibody. Samples were incubated for 1 hour at 4° C., then washed twice with PBS+2% BSA. Pellets were resuspended in 1 mL PBS+2% BSA, 10 μg/ml propidium iodide (Sigma-Aldrich), 500 µg/ml RNAse A (Thermo Scientific). Samples were incubated at 37° C. for 30 minutes, then transferred to 12×75 mm tubes for analysis. Data were acquired using FACSDiva software on a LSR II flow cytometer (BD Biosciences). 50,000 cells were analyzed per condition. Cell cycle fitting was performed using ModFit LT (Verity Software House).

RPE1 Plk4 G95L cells = test: Centrosome number and passaging assay, RPE1 Plk4 G95L knock-in; format: cell-based, human; conditions: RPE1, both PLK4 alleles G95L
From the text: For generation of RPE1 cells with a Plk4(G95L) knock-in, we targeted the intronic region between exons 4 and 5 of the Plk4 locus with a gRNA sequence ([…], SEQ ID NO: 1) cloned into pX458 (a gift from Feng Zhang; Addgene plasmid #48138; 44). A repair template was cloned to introduce the G95L point mutation, as well as a neomycin resistance cassette within the intronic region (see FIG. 15). RPE1 cells were transfected with the Cas9/gRNA plasmid, then transduced with adeno-associated virus coding for the repair template using previously described methods (45). Cells were selected in 96-well plates for 2 weeks using 0.5 mg/ml Geneticin (Life Technologies). Positive clones homozygous for the G95L knock-in were identified by PCR and sequencing of genomic DNA.
as §2

centrosomes in cells = test: Cellular centrosome depletion (cell line not stated); format: cell-based; conditions: cellular activity, FIG. 1A
Method: Centriole depletion assay for compound screening. 1,500 NIH/3T3 cells or 3,500 HCT116 cells were seeded into 96-well SCREENSTAR microplates (Greiner) and treated with inhibitors in dose response, added from DMSO stocks. After 3 days, cells were fixed directly in the wells with 100% methanol (−20° C., 10 minutes). The fixed cells were washed with PBS and stained with primary antibodies against γ-tubulin and, for a subset of compounds, Cep192. Cells were then stained with Alexa-488 donkey anti-mouse and Alexa-647 goat anti-rabbit secondary antibodies. Cells were imaged using either a Model 500 LumaScope (Etaluma) or an EVOS FL (Advanced Microscopy Group/Life Technologies), and centriole depletion was determined by scoring the percentage of cells without visible γ-tubulin/Cep192 foci.

RET = target: T2, RET (Homo sapiens, UniProt P07949); test: Radiometric kinase assay, off-target RET; format: biochemical; conditions: off-target from DiscoveRx kinome profiling
T2 construct: Reaction Biology (Malvern, Pa.), contract assay
T2 sequence (P07949 29-1114): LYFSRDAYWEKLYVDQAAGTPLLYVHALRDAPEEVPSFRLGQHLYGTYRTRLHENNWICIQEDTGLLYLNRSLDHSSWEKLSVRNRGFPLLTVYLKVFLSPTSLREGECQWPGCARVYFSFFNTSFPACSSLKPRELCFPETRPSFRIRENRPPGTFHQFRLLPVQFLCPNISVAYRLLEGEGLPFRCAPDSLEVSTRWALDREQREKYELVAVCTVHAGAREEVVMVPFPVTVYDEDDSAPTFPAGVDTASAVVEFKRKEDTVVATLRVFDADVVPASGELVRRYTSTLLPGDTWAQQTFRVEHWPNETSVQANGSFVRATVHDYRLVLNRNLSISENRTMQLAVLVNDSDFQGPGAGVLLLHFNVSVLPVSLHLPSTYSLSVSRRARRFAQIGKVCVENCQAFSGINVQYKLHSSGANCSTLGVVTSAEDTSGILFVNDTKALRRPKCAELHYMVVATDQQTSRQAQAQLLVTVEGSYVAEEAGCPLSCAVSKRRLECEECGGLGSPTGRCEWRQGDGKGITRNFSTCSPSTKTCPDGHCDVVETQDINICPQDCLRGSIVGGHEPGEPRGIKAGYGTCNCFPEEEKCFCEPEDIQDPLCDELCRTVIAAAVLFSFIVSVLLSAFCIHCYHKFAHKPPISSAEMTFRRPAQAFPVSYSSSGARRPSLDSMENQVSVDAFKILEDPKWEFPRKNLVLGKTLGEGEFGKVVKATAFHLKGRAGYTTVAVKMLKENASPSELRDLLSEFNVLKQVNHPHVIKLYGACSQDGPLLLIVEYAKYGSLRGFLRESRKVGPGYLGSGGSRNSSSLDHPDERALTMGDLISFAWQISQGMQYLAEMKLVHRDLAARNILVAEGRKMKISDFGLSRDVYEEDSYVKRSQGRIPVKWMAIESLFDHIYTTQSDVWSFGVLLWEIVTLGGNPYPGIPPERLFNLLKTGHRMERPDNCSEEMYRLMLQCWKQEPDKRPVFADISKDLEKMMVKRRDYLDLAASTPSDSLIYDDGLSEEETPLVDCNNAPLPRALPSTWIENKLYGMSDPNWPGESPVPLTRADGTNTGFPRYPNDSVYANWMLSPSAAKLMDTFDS
Method: as §1

panel of 19 cell lines = test: Proliferation after centrosome depletion, panel of cell lines; format: cell-based; conditions: panel of 19 cell lines (Table 6)
Method: Proliferation assays. For each condition, cells were seeded in triplicate into 6-well plates at 50,000 cells/well. Compounds were added at the indicated concentrations. At 24-hour intervals, 3 wells were harvested per condition. Cell counting was performed using a TC10 automated cell counter (Bio-Rad). Results are from 3 independent experiments.

JAK2 = target: T3, JAK2 (Homo sapiens, UniProt O60674); test: Radiometric kinase assay, off-target JAK2; format: biochemical; conditions: off-target from DiscoveRx kinome profiling
T3 construct: Reaction Biology (Malvern, Pa.), contract assay
T3 sequence (O60674 whole entry): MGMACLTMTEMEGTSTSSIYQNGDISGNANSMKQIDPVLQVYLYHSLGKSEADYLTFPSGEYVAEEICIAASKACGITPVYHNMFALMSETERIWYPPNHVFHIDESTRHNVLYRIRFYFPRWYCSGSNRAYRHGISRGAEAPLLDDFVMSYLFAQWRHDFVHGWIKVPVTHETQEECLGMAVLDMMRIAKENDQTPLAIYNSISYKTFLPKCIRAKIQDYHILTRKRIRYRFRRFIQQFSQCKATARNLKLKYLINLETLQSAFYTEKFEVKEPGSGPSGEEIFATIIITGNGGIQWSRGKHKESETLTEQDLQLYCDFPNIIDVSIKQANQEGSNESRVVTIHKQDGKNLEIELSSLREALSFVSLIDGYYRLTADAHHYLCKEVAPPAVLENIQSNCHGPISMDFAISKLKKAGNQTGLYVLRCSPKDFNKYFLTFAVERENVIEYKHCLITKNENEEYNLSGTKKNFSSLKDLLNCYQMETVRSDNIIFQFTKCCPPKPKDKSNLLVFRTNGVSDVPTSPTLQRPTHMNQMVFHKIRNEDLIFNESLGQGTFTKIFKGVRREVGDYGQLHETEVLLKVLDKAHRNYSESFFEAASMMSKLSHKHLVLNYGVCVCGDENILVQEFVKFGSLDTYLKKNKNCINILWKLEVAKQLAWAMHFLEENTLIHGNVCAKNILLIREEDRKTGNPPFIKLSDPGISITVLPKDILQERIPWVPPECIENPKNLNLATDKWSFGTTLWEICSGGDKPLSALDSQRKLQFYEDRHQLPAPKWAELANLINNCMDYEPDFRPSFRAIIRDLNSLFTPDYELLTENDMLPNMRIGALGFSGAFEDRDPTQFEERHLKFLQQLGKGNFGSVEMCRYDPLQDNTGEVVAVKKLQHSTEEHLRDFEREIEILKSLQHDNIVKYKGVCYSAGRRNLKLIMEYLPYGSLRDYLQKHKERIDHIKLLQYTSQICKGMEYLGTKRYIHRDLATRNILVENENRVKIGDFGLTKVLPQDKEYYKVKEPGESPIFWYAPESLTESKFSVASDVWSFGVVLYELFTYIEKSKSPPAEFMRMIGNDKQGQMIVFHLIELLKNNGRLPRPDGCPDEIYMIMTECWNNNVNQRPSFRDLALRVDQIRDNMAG
Method: as §1

FLT4/VEGFR3 = FLT4/VEGFR3 (Homo sapiens, UniProt P35916); test: Radiometric kinase assay, off-target FLT4/VEGFR3; format: biochemical; conditions: off-target from DiscoveRx kinome profiling
Chain of FLT4/VEGFR3 (P35916 25-1363): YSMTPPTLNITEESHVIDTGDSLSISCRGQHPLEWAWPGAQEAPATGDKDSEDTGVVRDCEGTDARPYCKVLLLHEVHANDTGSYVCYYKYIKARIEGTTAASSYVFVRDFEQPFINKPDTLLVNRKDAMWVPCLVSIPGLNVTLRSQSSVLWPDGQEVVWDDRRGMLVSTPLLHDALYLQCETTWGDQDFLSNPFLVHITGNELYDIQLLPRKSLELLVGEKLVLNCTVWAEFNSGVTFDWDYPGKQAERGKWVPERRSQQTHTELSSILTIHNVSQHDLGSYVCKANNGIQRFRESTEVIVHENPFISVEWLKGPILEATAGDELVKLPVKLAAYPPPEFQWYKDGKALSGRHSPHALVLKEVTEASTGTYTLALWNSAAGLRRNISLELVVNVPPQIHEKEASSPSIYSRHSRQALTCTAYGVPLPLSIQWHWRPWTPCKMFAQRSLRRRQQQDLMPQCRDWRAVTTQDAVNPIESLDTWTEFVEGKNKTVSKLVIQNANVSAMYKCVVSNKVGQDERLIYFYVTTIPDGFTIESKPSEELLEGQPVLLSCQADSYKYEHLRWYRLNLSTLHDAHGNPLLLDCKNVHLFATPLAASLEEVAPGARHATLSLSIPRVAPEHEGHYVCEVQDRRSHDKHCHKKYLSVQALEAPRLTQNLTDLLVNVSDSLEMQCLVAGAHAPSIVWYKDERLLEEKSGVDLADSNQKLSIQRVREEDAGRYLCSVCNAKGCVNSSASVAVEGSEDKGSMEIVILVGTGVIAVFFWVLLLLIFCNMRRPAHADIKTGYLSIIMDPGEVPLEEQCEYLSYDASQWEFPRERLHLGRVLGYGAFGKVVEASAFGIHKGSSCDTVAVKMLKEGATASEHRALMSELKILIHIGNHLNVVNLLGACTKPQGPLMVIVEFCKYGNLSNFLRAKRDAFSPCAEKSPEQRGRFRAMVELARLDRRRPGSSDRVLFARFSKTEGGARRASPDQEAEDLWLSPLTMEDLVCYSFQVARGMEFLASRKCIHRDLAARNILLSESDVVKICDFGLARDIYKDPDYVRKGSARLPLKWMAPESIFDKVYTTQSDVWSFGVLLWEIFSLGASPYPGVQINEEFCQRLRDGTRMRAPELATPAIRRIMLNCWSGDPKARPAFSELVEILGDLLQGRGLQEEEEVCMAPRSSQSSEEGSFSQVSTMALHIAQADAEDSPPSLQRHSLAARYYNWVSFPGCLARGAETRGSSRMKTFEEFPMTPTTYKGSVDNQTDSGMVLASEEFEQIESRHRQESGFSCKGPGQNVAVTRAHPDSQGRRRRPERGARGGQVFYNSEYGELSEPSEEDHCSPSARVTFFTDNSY
Method: as §1

COc1c(Nc2cc(C)[nH]n2)nc(Sc2ccc(S(=O)(=O)Cc3cccc([N+](=O)[O-])c3F)cc2F)nc1N1CCOCC1 [Centrinone, 2-((2-fluoro-4-((2-fluoro-3-nitrobenzyl)sulfonyl)phenyl)thio)-5-methoxy-N-(5-methyl-1H-pyrazol-3-yl)-6-morpholinopyrimidin-4-amine]
Ki (LRRK2): 2.08 nM
cell cycle after centrosome depletion (RPE1 cells; RPE1, 12-day passaging assay and flow cytometry): cell cycle arrest in G1
proliferation after washout (RPE1 cells; RPE1, addition Day 0, washout Day 8): did not
centrosome loss and proliferation (RPE1 Plk4 G95L cells): did not lead to centrosome loss or proliferation arrest
centrosome depletion at (centrosomes in cells): 100 nM
Ki (RET): 13.9 nM
proliferation after treatment (panel of 19 cell lines): continued to proliferate
Ki (JAK2): > 150 nM
Ki (FLT4/VEGFR3): 6.29 nM
